One experiment relates to HEK293. Nature of the experiment: Antiproliferative activity against human HEK293 cells after 48 hrs by MTS reduction assay. It is filed as cell-based. The conditions noted are these: HEK293, 48 h. In general terms: Tetrazolium assays rely on reduction of a dye to a coloured formazan, in cell work by metabolically active cells.
Experiment [1] concerns the target Cyclin-dependent kinase 7/ cyclin H (Homo sapiens, UniProt P50613). The experiment is described as follows: Inhibition of human recombinant CDK7/cyclin H expressed in baculovirus-infected insect cells.
Experiment [2] has as its target Cyclin-dependent kinase 2 (Homo sapiens, UniProt P24941). The experiment is described as follows: Inhibition of human recombinant CDK2/cyclin A expressed in baculovirus-infected insect cells.
The nature of experiment [3]: Inhibition of starfish oocytes CDK1/cyclin B. On the set-up: species or system Marthasterias glacialis. The settings on record: oocyte.
The next experiment has as its target CDK9/cyclin T1 (Homo sapiens, UniProt P50750). The experiment is described as follows: Inhibition of human recombinant CDK9/cyclin T expressed in baculovirus-infected insect cells.
The target of experiment [4] is Cyclin-dependent kinase 5/CDK5 activator 1 (Homo sapiens, UniProt Q00535).
Description: Inhibition of human recombinant CDK5/p25 expressed in Escherichia coli
The subject of another experiment is SH-SY5Y. Nature of the experiment: Antiproliferative activity against human SH-SY5Y cells after 48 hrs by MTS reduction assay. It is filed as functional, cell-based.

pIC50: −log10 of the molar value.

Cyclin-dependent kinase 5/CDK5 activator 1, sequence (Q00535 whole entry): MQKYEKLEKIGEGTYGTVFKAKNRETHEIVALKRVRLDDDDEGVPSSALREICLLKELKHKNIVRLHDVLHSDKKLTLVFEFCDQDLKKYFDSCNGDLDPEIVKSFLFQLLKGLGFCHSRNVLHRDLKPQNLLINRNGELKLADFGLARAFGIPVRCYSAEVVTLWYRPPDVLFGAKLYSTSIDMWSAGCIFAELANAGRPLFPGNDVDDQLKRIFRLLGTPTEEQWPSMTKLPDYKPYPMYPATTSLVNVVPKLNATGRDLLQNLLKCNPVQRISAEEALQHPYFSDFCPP
Cyclin-dependent kinase 5/CDK5 activator 1, sequence (Q15078 whole entry, further chain): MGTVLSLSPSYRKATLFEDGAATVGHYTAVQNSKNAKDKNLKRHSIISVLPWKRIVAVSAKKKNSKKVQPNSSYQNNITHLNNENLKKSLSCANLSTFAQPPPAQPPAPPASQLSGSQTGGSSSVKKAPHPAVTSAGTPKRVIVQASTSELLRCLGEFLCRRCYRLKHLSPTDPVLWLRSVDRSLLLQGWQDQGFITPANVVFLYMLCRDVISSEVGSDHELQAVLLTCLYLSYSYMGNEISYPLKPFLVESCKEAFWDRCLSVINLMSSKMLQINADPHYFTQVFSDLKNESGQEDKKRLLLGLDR
CDK9/cyclin T1, sequence (O60563 whole entry): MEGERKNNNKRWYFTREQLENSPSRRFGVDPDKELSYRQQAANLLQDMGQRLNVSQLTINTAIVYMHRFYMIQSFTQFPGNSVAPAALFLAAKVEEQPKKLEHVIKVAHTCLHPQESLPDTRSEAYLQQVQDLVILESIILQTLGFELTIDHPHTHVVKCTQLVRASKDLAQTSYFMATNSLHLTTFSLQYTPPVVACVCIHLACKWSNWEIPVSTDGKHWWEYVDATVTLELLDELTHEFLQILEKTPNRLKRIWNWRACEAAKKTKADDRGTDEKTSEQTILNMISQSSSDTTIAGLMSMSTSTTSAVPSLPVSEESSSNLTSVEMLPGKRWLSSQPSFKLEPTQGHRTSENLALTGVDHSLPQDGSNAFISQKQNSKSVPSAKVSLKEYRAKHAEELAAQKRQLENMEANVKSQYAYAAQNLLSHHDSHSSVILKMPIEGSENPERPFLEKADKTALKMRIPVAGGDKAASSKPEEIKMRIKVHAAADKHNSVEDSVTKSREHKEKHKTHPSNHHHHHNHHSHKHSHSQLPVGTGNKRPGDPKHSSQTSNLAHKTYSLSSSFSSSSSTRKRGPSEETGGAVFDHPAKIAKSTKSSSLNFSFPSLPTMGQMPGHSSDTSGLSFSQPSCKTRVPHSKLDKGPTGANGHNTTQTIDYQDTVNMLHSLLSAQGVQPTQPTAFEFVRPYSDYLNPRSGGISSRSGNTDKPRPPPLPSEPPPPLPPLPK
CDK9/cyclin T1, sequence (P50750 whole entry): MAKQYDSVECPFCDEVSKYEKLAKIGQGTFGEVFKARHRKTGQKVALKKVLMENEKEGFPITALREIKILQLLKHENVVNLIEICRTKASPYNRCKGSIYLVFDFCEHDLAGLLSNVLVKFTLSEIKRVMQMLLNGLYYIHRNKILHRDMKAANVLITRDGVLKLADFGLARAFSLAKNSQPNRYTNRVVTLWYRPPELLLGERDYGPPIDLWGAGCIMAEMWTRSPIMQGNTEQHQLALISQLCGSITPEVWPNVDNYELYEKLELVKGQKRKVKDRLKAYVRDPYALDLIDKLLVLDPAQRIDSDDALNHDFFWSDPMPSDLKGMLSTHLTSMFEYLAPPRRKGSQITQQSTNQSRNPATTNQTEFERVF
Cyclin-dependent kinase 7/ cyclin H, sequence (P51946 whole entry): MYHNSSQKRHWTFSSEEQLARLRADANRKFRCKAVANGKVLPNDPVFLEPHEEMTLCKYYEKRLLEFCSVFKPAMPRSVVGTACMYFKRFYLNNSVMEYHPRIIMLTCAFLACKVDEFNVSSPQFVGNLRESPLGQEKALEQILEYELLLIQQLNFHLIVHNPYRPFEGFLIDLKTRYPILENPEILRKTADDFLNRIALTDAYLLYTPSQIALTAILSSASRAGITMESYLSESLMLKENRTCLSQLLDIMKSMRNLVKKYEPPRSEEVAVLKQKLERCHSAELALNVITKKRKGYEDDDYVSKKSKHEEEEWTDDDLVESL
Cyclin-dependent kinase 7/ cyclin H, sequence (P50613 whole entry): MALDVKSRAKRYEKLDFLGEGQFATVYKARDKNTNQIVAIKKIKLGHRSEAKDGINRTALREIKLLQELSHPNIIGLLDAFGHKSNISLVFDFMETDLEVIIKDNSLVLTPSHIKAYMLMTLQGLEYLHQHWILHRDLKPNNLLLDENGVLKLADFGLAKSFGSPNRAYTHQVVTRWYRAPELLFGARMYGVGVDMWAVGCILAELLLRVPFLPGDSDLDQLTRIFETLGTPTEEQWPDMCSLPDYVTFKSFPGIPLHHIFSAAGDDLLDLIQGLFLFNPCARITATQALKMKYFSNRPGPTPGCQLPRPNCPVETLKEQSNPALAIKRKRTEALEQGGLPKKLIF

In general, pIC50 refers to −log10 of the IC50, conventionally taken in molar units. `CC[C@H](CO)Nc1nc(NCc2ccccc2)c2ncc(C(C)C)n2n1`: the pIC50 in the experiment on HEK293 was 4.57; in experiment [1], 6.22; in experiment [2], 6.66; in experiment [3], 6.40; on CDK9/cyclin T1, 6.70; in experiment [4], 6.49. Also, in the experiment with SH-SY5Y, the pIC50 was 4.81.

Consider `CC[C@@H](CO)Nc1nc(NCc2ccccc2)n2ncc(C(C)C)c2n1`, for which the pIC50 is 5.14 in the experiment on HEK293, 6.89 in experiment [4] and 5.70 in the experiment with SH-SY5Y.
